Assay results from BigSolDB 2.1.

CC(C)=CCOc1c2occc2cc2ccc(=O)oc12
solubility (mole fraction)
Conditions | 288.2 K | 293.2 K | 298.2 K | 303.2 K | 308.2 K | 313.2 K | 318.2 K | 323.2 K | 328.2 K
in ethanol | 0.00325 | 0.00454 | 0.0063 | 0.00865 | 0.0118 | 0.016 | 0.0215 | 0.0288 | 0.0382
in water | 7.4e-07 | 1.03e-06 | 1.06e-06 | 1.03e-06 | 1.35e-06 | 1.46e-06 | 1.5e-06 | 1.53e-06 | 1.81e-06
